Values quoted from earlier work, collected in patent US20250236629A1, “MEDIUM- OR MACRO-CYCLIC BENZYL-SUBSTITUTED HETEROCYCLE DERIVATIVES AND RELATED USES” (CENTESSA PHARMACEUTICALS (UK) LIMITED, priority 2022, published 2025).
Where two headings read alike, the source gives them in different places.

Tests used:
OX2R = target: T1, OX2R (Mus musculus, UniProt P58308); conditions: subcutaneous, cited from earlier work
T1 construct: host or cells: mice (WT, orexin-deficient and NT1 models), endogenous receptor in brain
T1 sequence (P58308 1-460): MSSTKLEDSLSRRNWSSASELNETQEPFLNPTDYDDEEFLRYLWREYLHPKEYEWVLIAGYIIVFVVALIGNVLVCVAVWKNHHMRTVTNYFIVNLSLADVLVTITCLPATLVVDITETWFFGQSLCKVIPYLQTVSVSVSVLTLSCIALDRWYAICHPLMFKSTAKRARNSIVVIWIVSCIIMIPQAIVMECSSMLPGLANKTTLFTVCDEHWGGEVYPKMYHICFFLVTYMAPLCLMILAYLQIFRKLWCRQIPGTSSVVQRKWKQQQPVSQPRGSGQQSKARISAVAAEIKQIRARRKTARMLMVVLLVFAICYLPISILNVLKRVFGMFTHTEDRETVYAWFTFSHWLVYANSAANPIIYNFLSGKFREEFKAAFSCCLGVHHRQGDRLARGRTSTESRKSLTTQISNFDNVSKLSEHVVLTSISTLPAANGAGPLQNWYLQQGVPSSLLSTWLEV

individuals with NT1 = conditions: initial clinical studies; cited from earlier work

COC(=O)N1CCC[C@H](NS(C)(=O)=O)[C@@H]1CO[C@H]1CC[C@@H](c2ccccc2)CC1 [TAK-925]
wakefulness (OX2R; OX2R-knockout mice): not in OX2R-knockout mice
wakefulness (OX2R; WT mice): modestly increased wakefulness
cataplexy (individuals with NT1): trends for decreasing cataplexy
wakefulness (individuals with NT1): substantial levels of increased wakefulness
